According to patent publication US20220304957A1, “ANTI-CANCER COMPOSITIONS AND METHODS OF USE” (Board of Supervisors of Louisiana State University and …, priority 2019, published 2022):

How the values were obtained:
[1] = Stability in human blood (HPLC); format: in vitro ADME; conditions: 50 μM added, 37 °C, 48-hour time point
Protocol: Aliquots of 50 μM PP1 and FF in DMSO were added to 500 μl to heparinized human blood to a final concentration of 50 μM. Following incubation at 37° C. for the indicated time points, the samples were frozen at −80° C., and later prepared for HPLC-based detection of the compounds. Please note that FF is converted to FA in the presence of human blood. […] Data represent average values with standard deviation (n=3). panel B: Water solubility. FF and PP1, were added to water to a final concentration of 50 mM and sonicated in an ultrasonic bath (Branson 1510 Digital Heated Ultrasonic bath) for one hour at room temperature. The samples were then centrifuged for 10 minutes at 16000×g, and the supernatant filtered through 0.45 μm syringe filter. […] The PPAR transcriptional activity was determined in HepG2 cells by the JsTkpGL3 reporter plasmid, which contains a firefly luciferase gene driven by the PPRE, which consists of three copies of the J site from the apo-AII gene promoter. […] The luciferase activity was detected with Dual-Luciferase reporter assay system (Promega, Madison, Wis.), and the resulting luminescence measured with Synergy 2 microplate reader (BioTek, Winooski, Vt.). […]
In this experiment, 50 μM of PP1 and 50 μM of FF were incubated with human blood at […], at indicated time points. […] In contrast, nearly 25 μM of PP1 was still detected at the 48-hour time point (FIG. 4A; left panel).

[2] = system: PPAR responsive elements (PPRE); experiment: PPAR luciferase assay (PPRE reporter) in HepG2 cells; format: cell-based; conditions: 25 μM, 24 hrs
Protocol: Aliquots of 50 μM PP1 and FF in DMSO were added to 500 μl to heparinized human blood to a final concentration of 50 μM. Following incubation at 37° C. for the indicated time points, the samples were frozen at −80° C., and later prepared for HPLC-based detection of the compounds. Please note that FF is converted to FA in the presence of human blood. […] Data represent average values with standard deviation (n=3). panel B: Water solubility. FF and PP1, were added to water to a final concentration of 50 mM and sonicated in an ultrasonic bath (Branson 1510 Digital Heated Ultrasonic bath) for one hour at room temperature. The samples were then centrifuged for 10 minutes at 16000×g, and the supernatant filtered through 0.45 μm syringe filter. Water solubilized PP1 and FF were subsequently processed for HPLC analysis (see Methods). Data represent average values with standard deviation (n=3). panel C: Effects of PP compounds on PPAR responsive elements (PPRE). The PPAR transcriptional activity was determined in HepG2 cells by the JsTkpGL3 reporter plasmid, which contains a firefly luciferase gene driven by the PPRE, which consists of three copies of the J site from the apo-AII gene promoter. To normalize for efficiency of transfection the cells were additionally transfected with the pSV40-GLuc (New England Biolabs, Ipswich, Mass.) control plasmid. […] The luciferase activity was detected with Dual-Luciferase reporter assay system (Promega, Madison, Wis.), and the resulting luminescence measured with Synergy 2 microplate reader (BioTek, Winooski, Vt.). Data represent average values with standard deviation (n=6).
PPAR Luciferase Assay—The PPAR transcriptional activity was determined by utilizing the JsTkpGL3 reporter plasmid, which contains a firefly luciferase gene driven by the PPAR responsive element (PPRE), which consists of three copies of the J site from the apo-AII gene promoter. Together with JsTkpGL3 plasmid HepG2 cells were transfected with pSV40-GLuc (New England Biolabs, Ipswich, Mass.) control plasmid expressing Gaussia luciferase under the control of the constitutive SV40 early promoter to normalize for efficiency of transfection. […] The luciferase activity was detected with Dual-Luciferase reporter assay system (Promega, Madison, Wis.), and the resulting luminescence measured with Synergy 2 microplate reader (BioTek, Winooski, Vt.).

CN(CCO)C(=O)C(C)(C)Oc1ccc(C(=O)c2ccc(Cl)cc2)cc1 [PP1, 2-[4-(4-chlorobenzoyl)phenoxy]-N-(2-hydroxyethyl)-N,2-dimethylpropanamide]
compound still detected in human blood [1]: ~25 µM | effect on PPAR responsive elements (PPRE) [2]: attenuate
